In patent US12152048B2, “Nitroxoline prodrug and use thereof” (Jiangsu Yahong Meditech Co., Ltd., priority 2018, dated 2024):
Values after ≈ are worked out from the molar mass of the structure shown.

Tests used:
[1] = Stability in plasma, overall conclusion (species not stated); conditions: conclusion in words
[2] = Stability in human plasma
[3] = Stability in dog liver microsome; conditions: 2 μM, 37° C., 30 minutes
Stability in dog plasma = format: in vitro ADME
Source text: (§1) Experimental instruments: thermostatic shaker (SHA-B, Guohua Electric Appliance Co., Ltd.); centrifuge (5810R, Eppendorf); mass spectrometry (AP4000, Applied Biosystems, USA); liquid chromatography (LC-30AD, Shimadzu); sample injector (CTC Analytics AG System, CTC).
(§2) Test animals: plasma of human (batch number: BRH1343165), rat (batch number: RAT336728), mouse (batch number: MSE280000), dog (batch number: BGL99137) and monkey (batch number: PH-Monkey-20180821) are purchased from Shanghai Sixin Biological Technology Co., Ltd.
(§3) Experimental process: the compound of the present invention was dissolved in an organic solvent to obtain a 1 mM working solution. 3 μL of the working solution were added to 597 μL of pre-incubated human or rat plasma and mixed well. 50 μL of the solution were immediately taken out as the 0 minute sample. The remaining sample was incubated at 37° C., and 50 μL of sample were taken out at 15, 30, 60 and 120 minutes respectively. All the samples taken out were immediately processed to precipitate protein, and centrifuged to obtain a supermate for the determination of the compound concentration by LC/MS/MS.

[4] = Determination of water solubility in phosphate buffer; format: physicochemical; conditions: aqueous buffer, thermodynamic from solid; phosphate buffer pH 7.4, room temperature, 24 hours
Summary of the method: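 2 mg solid compound shaken in 500 μL phosphate buffer (pH 1.2, 4.5, 6.8 or 7.4) in a sealed flask, room temperature, 24 h. Suspension vacuum-filtered; dissolved concentration in filtrate quantified by LC/MS/MS.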

[5] = Stability in human liver microsome; conditions: 2 μM, 37° C., 30 minutes
Procedure: (§4) Experimental instruments: thermostatic shaker (SHA-B, Guohua Electric Appliance Co., Ltd.); centrifuge (5810R, Eppendorf); mass spectrometry (API4000, Applied Biosystems, USA); liquid chromatography (LC-30AD, Shimadzu); sample injector (CTC Analytics AG System, CTC).
(§5) Experimental process: 25 μg/mL alamethicin (Aldrich), 5 mM magnesium chloride and 0.5 mg/mL microsome (XENOTECH) were added to 100 mM phosphate buffer to obtain a coenzyme-free reaction solution. A portion of the coenzyme-free reaction solution was added with 1 mM reductive nicotinamide adenine dinucleotide phosphate (Aldrich) and 5 mM uridine diphosphate glucuronic acid (Aldrich) to obtain a coenzyme-containing reaction solution. The working solution of the compound of the present invention was added to the two reaction solutions so that the final concentration of the compound was 2 μM. Immediately after mixing well, 50 μL of the solution were taken out as the 0 minute sample, and 50 μL of the remaining sample were taken out after incubating at 37° C. for 30 minutes. All the samples taken out were immediately processed to precipitate protein, and centrifuged to obtain a supernate for the determination of the compound concentration by LC/MS/MS.

[6] = Stability in mouse plasma; format: in vitro ADME
Source text: as §1, §2, §3

[7] = Stability in rat liver microsome; conditions: 2 μM, 37° C., 30 minutes
Procedure: as §4, §5

[8] = Stability in mouse liver microsome; format: in vitro ADME; conditions: 2 μM, 37° C., 30 minutes
[9] = Stability in liver microsome, overall conclusion (species not stated); format: in vitro ADME; conditions: conclusion in words
[10] = Stability in monkey plasma; format: in vitro ADME
Source text: as §1, §2, §3

Source text for Stability in rat plasma: as §1, §2, §3

With `CN1CCN(C(=O)OCOc2ccc([N+](=O)[O-])c3cccnc23)CC1` [Compound 6, (5-nitroquinolin-8-yloxy)methyl 4-methylpiperazine-1-carboxylate] the stability in plasma [1] was “high stability”, the “Percentage of the compound remaining in plasma” value ([2]; 0 minute) was 100.0% and the “Percentage of the compound remaining in plasma” value ([2]; 37° C., 15 minutes) was 97.5%. For the same molecule, the “Percentage of the compound remaining in plasma” value ([2]; 37° C., 30 minutes) was 106.0%, the “Percentage of the compound remaining in plasma” value ([2]; 37° C., 60 minutes) was 95.0% and the “Percentage of the compound remaining in plasma” value ([2]; 37° C., 120 minutes) was 99.3%. For the same molecule, the “Percentage of the compound remaining in dog liver microsome” value ([3]; with coenzyme) was 38.76%, the “Percentage of the compound remaining in dog liver microsome” value ([3]; without coenzyme) was 114.53% and the “Percentage of the compound remaining in plasma” value (Stability in dog plasma; 0 minute) was 100.0%. For the same molecule, the “Percentage of the compound remaining in plasma” value (Stability in dog plasma; 37° C., 15 minutes) was 111.5%, the “Percentage of the compound remaining in plasma” value (Stability in dog plasma; 37° C., 30 minutes) was 111.9% and the “Percentage of the compound remaining in plasma” value (Stability in dog plasma; 37° C., 60 minutes) was 114.6%. For the same molecule, the “Percentage of the compound remaining in plasma” value (Stability in dog plasma; 37° C., 120 minutes) was 105.9%, the solubility at 24 h [4] was 985 µg/mL (≈ 2840 µM) and the “Percentage of the compound remaining in plasma” value (Stability in rat plasma; 0 minute) was 100.0%. The “Percentage of the compound remaining in plasma” value (Stability in rat plasma; 37° C., 15 minutes) was 95.5%, the “Percentage of the compound remaining in plasma” value (Stability in rat plasma; 37° C., 30 minutes) was 98.8% and the “Percentage of the compound remaining in plasma” value (Stability in rat plasma; 37° C., 60 minutes) was 90.2%. The “Percentage of the compound remaining in plasma” value (Stability in rat plasma; 37° C., 120 minutes) was 89.4%, the “Percentage of the compound remaining in human liver microsome” value ([5]; with coenzyme) was 109.46% and the “Percentage of the compound remaining in human liver microsome” value ([5]; without coenzyme) was 118.37%. The “Percentage of the compound remaining in plasma” value ([6]; 0 minute) was 100.0%, the “Percentage of the compound remaining in plasma” value ([6]; 37° C., 15 minutes) was 97.7% and the “Percentage of the compound remaining in plasma” value ([6]; 37° C., 30 minutes) was 95.4%. For the same molecule, the “Percentage of the compound remaining in plasma” value ([6]; 37° C., 60 minutes) was 98.9%, the “Percentage of the compound remaining in plasma” value ([6]; 37° C., 120 minutes) was 92.1% and the “Percentage of the compound remaining in rat liver microsome” value ([7]; with coenzyme) was 75.71%. For the same molecule, the “Percentage of the compound remaining in rat liver microsome” value ([7]; without coenzyme) was 99.73%, the “Percentage of the compound remaining in mouse liver microsome” value ([8]; with coenzyme) was 51.08% and the “Percentage of the compound remaining in mouse liver microsome” value ([8]; without coenzyme) was 116.52%. For the same molecule, the stability in microsome [9] was “high stability”, the “Percentage of the compound remaining in plasma” value ([10]; 0 minute) was 100.0% and the “Percentage of the compound remaining in plasma” value ([10]; 37° C., 15 minutes) was 98.3%. The “Percentage of the compound remaining in plasma” value ([10]; 37° C., 30 minutes) was 101.1%, the “Percentage of the compound remaining in plasma” value ([10]; 37° C., 60 minutes) was 91.6% and the “Percentage of the compound remaining in plasma” value ([10]; 37° C., 120 minutes) was 98.9%.
For `O=C(OCOc1ccc([N+](=O)[O-])c2cccnc12)N1CCOCC1` [Compound 7, (5-nitroquinolin-8-yloxy)methyl morpholine-4-carboxylate], the stability in plasma [1] was “high stability”, the “Percentage of the compound remaining in plasma” value ([2]; 0 minute) was 100.0% and the “Percentage of the compound remaining in plasma” value ([2]; 37° C., 15 minutes) was 93.5%. The “Percentage of the compound remaining in plasma” value ([2]; 37° C., 30 minutes) was 97.8%, the “Percentage of the compound remaining in plasma” value ([2]; 37° C., 60 minutes) was 99.6% and the “Percentage of the compound remaining in plasma” value ([2]; 37° C., 120 minutes) was 105.2%. The “Percentage of the compound remaining in dog liver microsome” value ([3]; with coenzyme) was 28.07%, the “Percentage of the compound remaining in dog liver microsome” value ([3]; without coenzyme) was 83.78% and the “Percentage of the compound remaining in plasma” value (Stability in dog plasma; 0 minute) was 100.0%. The “Percentage of the compound remaining in plasma” value (Stability in dog plasma; 37° C., 15 minutes) was 104.0%, the “Percentage of the compound remaining in plasma” value (Stability in dog plasma; 37° C., 30 minutes) was 107.2% and the “Percentage of the compound remaining in plasma” value (Stability in dog plasma; 37° C., 60 minutes) was 106.5%. For the same molecule, the “Percentage of the compound remaining in plasma” value (Stability in dog plasma; 37° C., 120 minutes) was 101.8%, the solubility at 24 h [4] was 134 µg/mL (≈ 403 µM) and the “Percentage of the compound remaining in plasma” value (Stability in rat plasma; 0 minute) was 100.0%. The “Percentage of the compound remaining in plasma” value (Stability in rat plasma; 37° C., 15 minutes) was 94.0%, the “Percentage of the compound remaining in plasma” value (Stability in rat plasma; 37° C., 30 minutes) was 98.6% and the “Percentage of the compound remaining in plasma” value (Stability in rat plasma; 37° C., 60 minutes) was 95.0%. For the same molecule, the “Percentage of the compound remaining in plasma” value (Stability in rat plasma; 37° C., 120 minutes) was 91.6%, the “Percentage of the compound remaining in human liver microsome” value ([5]; with coenzyme) was 91.44% and the “Percentage of the compound remaining in human liver microsome” value ([5]; without coenzyme) was 96.71%. The “Percentage of the compound remaining in plasma” value ([6]; 0 minute) was 100.0%, the “Percentage of the compound remaining in plasma” value ([6]; 37° C., 15 minutes) was 98.5% and the “Percentage of the compound remaining in plasma” value ([6]; 37° C., 30 minutes) was 98.8%. The “Percentage of the compound remaining in plasma” value ([6]; 37° C., 60 minutes) was 96.1%, the “Percentage of the compound remaining in plasma” value ([6]; 37° C., 120 minutes) was 89.3% and the “Percentage of the compound remaining in rat liver microsome” value ([7]; with coenzyme) was 69.51%. For the same molecule, the “Percentage of the compound remaining in rat liver microsome” value ([7]; without coenzyme) was 90.84%, the “Percentage of the compound remaining in mouse liver microsome” value ([8]; with coenzyme) was 55.15% and the “Percentage of the compound remaining in mouse liver microsome” value ([8]; without coenzyme) was 82.50%. For the same molecule, the stability in microsome [9] was “high stability”, the “Percentage of the compound remaining in plasma” value ([10]; 0 minute) was 100.0% and the “Percentage of the compound remaining in plasma” value ([10]; 37° C., 15 minutes) was 96.5%. For the same molecule, the “Percentage of the compound remaining in plasma” value ([10]; 37° C., 30 minutes) was 105.9%, the “Percentage of the compound remaining in plasma” value ([10]; 37° C., 60 minutes) was 99.0% and the “Percentage of the compound remaining in plasma” value ([10]; 37° C., 120 minutes) was 98.7%.
With `COC(=O)CNC(=O)OCOc1ccc([N+](=O)[O-])c2cccnc12` [Compound 53, methyl 2-(((5-nitroquinolin-8-yloxy)methoxy)formamido)acetate] the stability in plasma [1] was “high stability”, the “Percentage of the compound remaining in dog liver microsome” value ([3]; with coenzyme) was 70.38% and the “Percentage of the compound remaining in dog liver microsome” value ([3]; without coenzyme) was 82.59%. For the same molecule, the “Percentage of the compound remaining in plasma” value (Stability in dog plasma; 0 minute) was 100.0%, the “Percentage of the compound remaining in plasma” value (Stability in dog plasma; 37° C., 15 minutes) was 96.3% and the “Percentage of the compound remaining in plasma” value (Stability in dog plasma; 37° C., 30 minutes) was 92.3%. For the same molecule, the “Percentage of the compound remaining in plasma” value (Stability in dog plasma; 37° C., 60 minutes) was 78.6%, the “Percentage of the compound remaining in plasma” value (Stability in dog plasma; 37° C., 120 minutes) was 67.3% and the solubility at 24 h [4] was 45.5 µg/mL (≈ 136 µM). For the same molecule, the “Percentage of the compound remaining in human liver microsome” value ([5]; with coenzyme) was 79.98%, the “Percentage of the compound remaining in human liver microsome” value ([5]; without coenzyme) was 84.61% and the “Percentage of the compound remaining in rat liver microsome” value ([7]; with coenzyme) was 54.58%. The “Percentage of the compound remaining in rat liver microsome” value ([7]; without coenzyme) was 54.77%, the “Percentage of the compound remaining in mouse liver microsome” value ([8]; with coenzyme) was 32.13% and the “Percentage of the compound remaining in mouse liver microsome” value ([8]; without coenzyme) was 55.80%. The stability in microsome [9] was “high stability”.
